The text below walks through data of ChEMBL document CHEMBL3259735, “Designing bifunctional NOP receptor-mu opioid receptor ligands from NOP-receptor selective scaffolds. Part II” (Bioorg Med Chem, 2014).

Activity calls are given as the source filed them. No cut-off for these calls is given here.

The subject of data set [1] is Mus musculus. Nature of the data set: Toxicity in ICR mouse assessed as rewarding effect by measuring increase in time spent in drug-paired compartment at 1 to 10 mg/kg, sc administered every 2 days for 6 days measured 24 hrs post last dose by conditioned place preference assay. Type of data set: organism-based. More on the design: dose 1-10 mg/kg, route subcutaneous. Particulars: in vivo.

Data set [2] deals with Mus musculus. Description: Toxicity in ICR mouse assessed as effect on global effect at 1 to 10 mg/kg, sc administered every 2 days for 6 days measured 24 hrs post last dose during conditioning training. Particulars: in vivo. Details: dose 1-10 mg/kg, route subcutaneous. Type of data set: organism-based.
Data set [3] concerns Mus musculus. Description: Toxicity in ICR mouse assessed as rewarding effect by measuring increase in time spent in drug-paired compartment at 10 mg/kg, sc administered every 2 days for 6 days measured 24 hrs post last dose by conditioned place preference assay. Details: dose 10 mg/kg, route subcutaneous. The data set is classed as organism-based. The settings on record: in vivo.

For data set [4], the system named is Mus musculus. Description: Toxicity in ICR mouse assessed as increase in global effect at 10 mg/kg, sc administered every 2 days for 6 days measured 24 hrs post last dose during conditioning training. Type of data set: organism-based. Details: dose 10 mg/kg, route subcutaneous. Particulars: in vivo.
Data set [5] concerns Mus musculus. Nature of the data set: Antinociceptive activity in ICR mouse assessed as thermal-stimulus induced tail flick latency at 3 to 10 mg/kg, sc measured up to 4 hrs relative to control. Type of data set: functional, organism-based.

Turning to `CCC1C(=O)N(C2CCN([C@H]3CC[C@@H]4CCCc5cccc3c54)CC2)c2ccccc21` (mixture of isomers), the Activity entry in the data set with Mus musculus [1] and in the data set on Mus musculus [2] was “Non-toxic” throughout.

Consider `CN1CC[C@]23c4c5ccc(O)c4O[C@H]2[C@@H](O)C=C[C@H]3[C@H]1C5` [MORPHINE], for which the Activity entry in the data set with Mus musculus [3] and with Mus musculus [4] was “Toxic” throughout. The result with Mus musculus [5] was Active.
